The source of these data is ChEMBL document CHEMBL1201862, “PubChem BioAssay data set” (2004).

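Compound exposure: 48 hours, 5 concentrations, 96-well plates. GI50: concentration for 50% inhibition of growth.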 The source made the active and inactive calls. No stated cut-off is given here; in the data, active = GI50 up to about 1.1 µM and inactive = higher.

A word on the GI50: it is the concentration giving 50% growth inhibition.

Common to all, as to test: DTP human tumour cell line panel, 48 h
Experiment [1] relates to A498.
The test system of experiment [2] is COLO 205.
Experiment [3] relates to DU-145.
The subject of experiment [4] is HCC 2998.
The test system of experiment [5] is HOP-62.
Experiment [6] deals with HOP-92.
In experiment [7] the test system is Hs-578T.
In experiment [8] the test system is MOLT-4.
For experiment [9], the system named is NCI-H226.
The test system of experiment [10] is NCI-H23.
The subject of experiment [11] is OVCAR-4.
The test system of experiment [12] is OVCAR-8.
The subject of experiment [13] is PC-3.
Experiment [14] concerns SF-295.
Experiment [15] has as its system SK-MEL-28.
The test system of experiment [16] is SK-MEL-5.
The subject of experiment [17] is SNB-19.
Experiment [18] deals with SNB-75.
Experiment [19] has as its system U-251.
Experiment [20] deals with UO-31.

Regarding `O=C(/C=C/c1ccc(OCc2ccccc2)cc1)NCc1ccc(C(=O)NCCc2c[nH]c3ccccc23)cc1`, the GI50 in experiment [1] was 38.9 µM (inactive); in experiment [2] it was > 75.5 µM (inactive); in [3], 32.8 µM (inactive); in [4], 43.2 µM (inactive); in experiment [5] it was 3.66 µM (inactive); in [6], 21 µM (inactive). In addition, the GI50 in [7] was 6.35 µM (inactive); in [8] it was > 59.8 µM (inactive); in experiment [9] it was > 34.6 µM (inactive); in experiment [10] it was 14.9 µM (inactive); in experiment [11] it was 7.76 µM (inactive); in experiment [12], 6.76 µM (inactive). Also, the GI50 was 12 µM (inactive) in experiment [13]; 3.41 µM (inactive) in experiment [14]; 74.5 µM (inactive) in experiment [15]; 17.8 µM (inactive) in experiment [16]; 9.77 µM (inactive) in [17]; 8.3 µM (inactive) in experiment [18]. The GI50 is 4.37 µM (inactive) in experiment [19] and 35 µM (inactive) in [20].

Turning to `CCCCCCCCCCCCCCCC(=O)OCC1CCCN2CCCCC12` (stereo not given), the GI50 in experiment [1], in [2], in [3], in experiment [4], in experiment [5] and in experiment [6] was > 100 µM (inactive) throughout. Further, the GI50 in experiment [7], in [8], in experiment [9], in experiment [10], in [11] and in experiment [12] was > 100 µM (inactive) each time. Further, the GI50 in experiment [13], in experiment [14], in experiment [15], in experiment [16], in [17] and in experiment [18] was > 100 µM (inactive) throughout. In addition, the GI50 in experiment [19] and in experiment [20] was > 100 µM (inactive) each time.

As to `CCCC(=O)NC1=C(Cl)C(=O)c2ccccc2C1=O`, the GI50 in experiment [1] is 13.3 µM (inactive); in experiment [2] it was 1.89 µM (inactive); in experiment [3] it was 8.32 µM (inactive); in experiment [4] it was 4.22 µM (inactive); in experiment [5], 9.23 µM (inactive); in [6] it was 1.82 µM (inactive). Also, the GI50 in [7] was 5.25 µM (inactive); in experiment [8], 2.56 µM (inactive); in experiment [9], 7.78 µM (inactive); in experiment [10] it was 3.03 µM (inactive); in experiment [11], 4.51 µM (inactive); in experiment [12], 5.02 µM (inactive). Moreover, the GI50 in experiment [13] is 3.23 µM (inactive); in experiment [14] it was 4.99 µM (inactive); in [15] it was 4.33 µM (inactive); in experiment [16], 2.67 µM (inactive); in [17], 6.89 µM (inactive); in experiment [18], 5.09 µM (inactive). Further, the GI50 is 3.78 µM (inactive) in experiment [19] and 2.96 µM (inactive) in experiment [20].

Take `COc1cc(/C=C2\CC3C4CC[C@H]5C[C@@H](O)CC[C@]5(C)C4CC[C@]3(C)C2=O)cc(OC)c1OC` (stereo not given in full): the GI50 in experiment [1] was 12.1 µM (inactive); in [2], 5.93 µM (inactive); in experiment [3], 27.2 µM (inactive); in experiment [4], 7.13 µM (inactive); in experiment [5], 13 µM (inactive); in experiment [6] it was 26.5 µM (inactive). For the same molecule, the GI50 in experiment [7] is 14.4 µM (inactive); in experiment [8] it was 4.82 µM (inactive); in experiment [9], 13.6 µM (inactive); in [10], 20.4 µM (inactive); in experiment [11], 4.61 µM (inactive); in experiment [12], 15.8 µM (inactive). In addition, the GI50 in [13] is 5.48 µM (inactive); in experiment [14] it was 4.69 µM (inactive); in experiment [15], 32.7 µM (inactive); in [16] it was 9.29 µM (inactive); in experiment [17] it was 17.5 µM (inactive); in [18], 14.4 µM (inactive). For the same molecule, the GI50 in experiment [19] is 8.26 µM (inactive); in experiment [20], 4.08 µM (inactive).

For `CC(=O)O[C@H]1C[C@H]2[C@@H]([C@H](OC(C)=O)C[C@@H]3CC4(CC[C@@]32C)OOC2(CCCCC2)OO4)[C@@H]2CC[C@H]([C@H](C)CCC(=O)O)[C@@]12C`, the GI50 was 13.3 µM (inactive) in [1]; 3.91 µM (inactive) in experiment [2]; 10.4 µM (inactive) in experiment [3]; 12 µM (inactive) in experiment [4]; 2.45 µM (inactive) in experiment [5]; 1.98 µM (inactive) in experiment [6]. Besides, the GI50 in experiment [7] is 2.42 µM (inactive); in [8], 9.02 µM (inactive); in experiment [9] it was 7.29 µM (inactive); in experiment [10] it was 4.13 µM (inactive); in experiment [11], 2.55 µM (inactive); in experiment [12], 4.08 µM (inactive). Moreover, the GI50 in experiment [13] is 7.24 µM (inactive); in [14] it was 5.93 µM (inactive); in experiment [15], 11.4 µM (inactive); in [16] it was 10.6 µM (inactive); in experiment [17], 6.71 µM (inactive); in [18], 3.61 µM (inactive). For the same molecule, the GI50 in [19] was 4.52 µM (inactive); in experiment [20], 3.28 µM (inactive).

As for `O/N=N/c1ccc(-c2ccccc2)cn1`, the GI50 in [1] is 13 µM (inactive); in [2] it was 15 µM (inactive); in experiment [3], 2.22 µM (inactive); in experiment [4], 16.9 µM (inactive); in experiment [5], 3.45 µM (inactive); in experiment [6], 1.32 µM (inactive). Besides, the GI50 in experiment [7] was 23.8 µM (inactive); in [8], 0.0755 µM (active); in [9], 17.9 µM (inactive); in [10], 4 µM (inactive); in experiment [11] it was 23.3 µM (inactive); in experiment [12] it was 15 µM (inactive). Further, the GI50 is 7.4 µM (inactive) in experiment [13]; 8.13 µM (inactive) in [14]; 45.2 µM (inactive) in experiment [15]; 11.9 µM (inactive) in [16]; 18.1 µM (inactive) in experiment [17]; 6.46 µM (inactive) in experiment [18]. Also, the GI50 in experiment [19] was 15.7 µM (inactive); in [20], 13.2 µM (inactive).

Turning to `COc1ccc(/C=C2\CCC(Cc3ccccc3)(CN(C)C)C2=O)cc1` (stereo not given), the GI50 in [1] was 58.6 µM (inactive); in experiment [2] it was 37.8 µM (inactive); in experiment [3] it was > 70.8 µM (inactive); in experiment [4] it was 24.4 µM (inactive); in experiment [5] it was > 100 µM (inactive); in experiment [6] it was 53.3 µM (inactive). Further, the GI50 in experiment [7] is > 91.2 µM (inactive); in experiment [8] it was 25 µM (inactive); in experiment [9], 42 µM (inactive); in experiment [10], 44 µM (inactive); in experiment [11], 56.8 µM (inactive); in experiment [12], 41.6 µM (inactive). Further, the GI50 in [13] was 83.9 µM (inactive); in [14] it was > 83.2 µM (inactive); in experiment [15], > 72.9 µM (inactive); in experiment [16] it was 20.8 µM (inactive); in [17], 51.4 µM (inactive); in experiment [18] it was 94.2 µM (inactive). The GI50 in experiment [19] is 61.7 µM (inactive); in [20], 54.3 µM (inactive).

Consider `Nc1ccc(C(=O)N2CCC[C@H]2CO)c(N)c1`, for which the GI50 in experiment [1], in experiment [2], in [3], in [4], in experiment [5] and in experiment [6] was > 100 µM (inactive) each time. The GI50 in experiment [7], in [8], in experiment [9], in experiment [10], in experiment [11] and in experiment [12] was > 100 µM (inactive) in each case. The GI50 in experiment [13], in experiment [14], in experiment [15], in experiment [16], in experiment [17] and in [18] was > 100 µM (inactive) each time. In addition, the GI50 in experiment [19] and in [20] was > 100 µM (inactive) in each case.

Turning to `COc1ccccc1-c1nc(-c2ccccc2O)n[nH]1`, the GI50 in experiment [1], in [2], in experiment [3], in [4], in experiment [5] and in experiment [6] was > 100 µM (inactive) each time. The GI50 in experiment [7], in [8], in [9], in [10], in experiment [11] and in experiment [12] was > 100 µM (inactive) in each case. Besides, the GI50 in [13], in experiment [14], in experiment [15], in experiment [16], in experiment [17] and in experiment [18] was > 100 µM (inactive) each time. In addition, the GI50 in experiment [19] and in [20] was > 100 µM (inactive) in each case.
